Columns and labels:
GLP1R [1] = target: T1, GLP1R (Homo sapiens, UniProt P43220); assay: β-Arrestin-mediated GLP1R internalization assay (PathHunter engineered U2OS cells); assay type: cell-based; parameters: host or cells: PathHunter engineered U2OS cells; conditions: averaged Bmax, percentage of control GLP-1 (7-37), highest concentration tested
Description: A similar assay can also be used to assess the extent of signal attenuation due to GLP-1R internalization (the β-Arrestin Internalization Assay). In this assay, activated GLP1R Internalization cells were engineered to co-express an untagged GLP1R, Enzyme Acceptor (EA) tagged β-Arrestin, and a ProLink™ (PK) tag localized to the endosomes. Activation of the GLP1R induces β-Arrestin recruitment, which leads to internalization of the Receptor/Arrestin-EA complex in PK-tagged endosomes. This forces complementation of the two β-galactosidase enzyme fragments (EA and PK) to form a functional enzyme that hydrolyzes substrate to generate a chemiluminescent signal. These cells have been modified to prevent long term propagation and expansion using a proprietary compound that has no apparent effect on assay performance.
Specifically, PathHunter engineered U2OS cells from the assay kit (Cat #93-0724E3CP0L) were plated at a density of 2000 cells/20 μL/well in a 384-well white/clear bottom plates (Greiner Cat #781098). Frozen cells were quickly thawed and 10 mL of cell plating medium (provided by the kit) was added to thawed cells. Cells were stored in a 37° C. incubator and kept for approximately 48 hours until ready for the assay.
Reference and test compounds were dissolved in 100% DMSO. 5× concentration of an agonist was prepared in serum free DMEM (Thermo Cat #11965). 5 μL of this solution was added to 20 μL cell medium in assay plate for a final top concentration of 10 μM. Plates were incubated at 37° C. for 180 min.
Following 180 min incubation, detection reagents were made up by combining 1 part Galacton Star Substrate with 5 parts Emerald II™ Solution, and 19 parts of PathHunter Cell Assay Buffer, respectively. 12.5 μL detection reagent was added to each well. The plates were then incubated at room temperature for 60 min. Plates were then read on Envision for 0.1 sec/well.
(§1) EC50 determinations were made from agonist dose-response curves analyzed with a curve fitting program using a 4-parameter logistic dose response equation.

GLP1R [2] = target: T1, GLP1R; assay: GLP-1R/β-Arrestin recruitment assay (PathHunter eXpress GLP1R CHO-K1 β-Arrestin GPCR Assay); assay type: cell-based; parameters: host or cells: PathHunter CHO-K1 GLP1R β-Arrestin cells; conditions: averaged Bmax, percentage of control GLP-1 (7-37), highest concentration tested
Description: GLP-1R agonist activity with respect to β-arrestin recruitment can be determined with a cell-based functional assay using PathHuntcr eXpress GLP1R CHO-K1 β-Arrestin GPCR Assay kit (DiscovcrX Cat #93-0300E2CP0M).
The PathHunter β-Arrestin GPCR assay technology utilizes a β-galactosidase (β-gal) enzyme that is split into two fragments, the smaller Enzyme Donor (ED) and the larger Enzyme Acceptor (EA). These fragments can be fused to two proteins that may interact with each other, such as EA-β-Arrestin and ED-GLP-1R. The fusions can be stably expressed in a test cell line, such as the PathHunter CHO-K1 GLP1R β-Arrestin cells described below.
Independently, these fragment fusions have no β-gal activity; however, in solution or in a living cell, they can be brought together and complement to form an active β-gal enzyme due to the interaction between the fused proteins, thus generating a chemiluminescent signal in the presence of a suitable β-gal substrate.
In this experiment, PathHunter CHO-K1 GLP1R β-Arrestin cells from the assay kit were plated at a density of 1000 or 2000 cells/20 μl/well in a 384-well white/clear bottom plates (Greiner Cat #781098). Frozen cells were quickly thawed and 10 mL of cell plating medium (provided by the kit) was added to thawed cells. Cells were stored in a 37° C. incubator under 5% CO2 and kept for approximately 48 hours until ready to ran the assay.
Reference and test compounds were dissolved in 100% DMSO. 5× concentration of an agonist was prepared in serum free DMEM (Thermo Cat #11965). 5 μL of this solution was added to 20 μL cell medium in assay plate for a final top concentration of 10 μM. Plates were then incubated at 37° C. under 5% CO2 for 90 min.
Following 90 min incubation, detection reagents were made up by combining 1 part Galacton Star Substrate with 5 parts Emerald II™ Solution, and 19 parts of PathHunter Cell Assay Buffer, respectively. 12.5 μL detection reagent was added to each well. The plates were then incubated at room temperature in dark for 60 min. Plates were then read on Envision for 0.1 sec/well.
as §1
Cells were plated at a density of 1000 or 2000 cells/20 μL/well. Frozen cells were quickly thawed and added to 10 mL of cell plating medium. Cells were stored in a 37° C. incubator under 5% CO2 and left for approximately 48 hours until ready to run the assay.
• 1) Reference agonist compound GLP1 (7-37): dissolved with DMSO to make 1 mM stock solutions, aliquoted and stored at −80° C. • 2) Test compounds (such as the compounds of the invention) came solubilized in 100% DMSO.
Prepare 10× concentration of an agonist in serum free DMEM, and add all solutions into the compound plate. 2.5 μL of this solution was added to 20 μL cell medium in assay plate for a final top concentration of 10 μM. Plates were incubated at 37° C. under 5% CO2 for 30 min. An additional 2.5 μL of Buffer was added to the entire plate for agonist mode and incubated at 37° C. for another 90 min.
Following 90 min incubation, detection reagents were made up as described. 12.5 μL was added to all wells. The plates were then incubated at room temperature in dark for 60 min. Plates were then read on Envision for 0.1 sec/well.
Data analysis: GraphPad Prism 6 was used for establishment of progression curve. EC50S or IC50s were determined by 4-parameter logistic dose response equation.

T1 sequence (P43220 24-463): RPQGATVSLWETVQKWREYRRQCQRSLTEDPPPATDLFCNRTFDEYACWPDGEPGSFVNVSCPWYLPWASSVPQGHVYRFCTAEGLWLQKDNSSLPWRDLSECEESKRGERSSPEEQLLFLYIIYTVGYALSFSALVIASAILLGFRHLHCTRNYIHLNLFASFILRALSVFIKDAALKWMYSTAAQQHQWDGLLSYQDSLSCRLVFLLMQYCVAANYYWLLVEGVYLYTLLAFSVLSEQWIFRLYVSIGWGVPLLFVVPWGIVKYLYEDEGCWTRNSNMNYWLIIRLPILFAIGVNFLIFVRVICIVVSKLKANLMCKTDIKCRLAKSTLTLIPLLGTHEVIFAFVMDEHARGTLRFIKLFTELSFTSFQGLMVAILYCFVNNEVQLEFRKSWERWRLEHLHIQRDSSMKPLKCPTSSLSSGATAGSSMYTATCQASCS

Row | SMILES | Bmax (POC) (GLP1R [1]) | Bmax (POC) (GLP1R [2])
1 | O=C(O)c1ccc2nc(CN3CCC(c4ccnc(OCc5ccc(Cl)cc5F)n4)CC3)n(C[C@@H]3CCO3)c2c1 [Compound 18, (S)-2-((4-(2-((4-chloro-2-fluorobenzyl)oxy)pyrimidin-4-yl)piperidin-1-yl)methyl)-1-(oxetan-2-ylmethyl)-1H-benzo[d]imidazole-6-carboxylic acid] | 21.3 ± 3.47 | 26.2 ± 1.55
2 | O=C(O)c1ccc2nc(CN3CCC(c4cncc(OCc5ccc(Cl)cc5F)n4)CC3)n(C[C@@H]3CCO3)c2c1 [Compound 21, (S)-2-((4-(6-(4-chloro-2-fluorobenzyloxy)pyrazin-2-yl)piperidin-1-yl)methyl)-1-(oxetan-2-ylmethyl)-1 h-benzo[d]imidazole-6-carboxylic acid] | 6.64 ± 1.55 | 19.0 ± 0.982
3 | N#Cc1ccc(COc2cncc(C3CCN(Cc4nc5ccc(C(=O)O)cc5n4C[C@@H]4CCO4)CC3)n2)c(F)c1 [Compound 22, (S)-2-((4-(6-(4-cyano-2-fluorobenzyloxy)pyrazin-2-yl)piperidin-1-yl)methyl)-1-(oxetan-2-ylmethyl)-1 h-benzo[d]imidazole-6-carboxylic acid] | 7.40 ± 6.97 | 10.9 ± 0.0317
4 | O=C(O)c1ccc2nc(CN3CC=C(c4cccc(OCc5ccc(Cl)cc5F)c4)CC3)n(C[C@@H]3CCO3)c2c1 [Compound 28, (S)-2-((4-(3-((4-chloro-2-fluorobenzyl)oxy)phenyl)-3,6-dihydropyridin-1(2H)-yl)methyl)-1-(oxetan-2-ylmethyl)-1 h-benzo[d]imidazole-6-carboxylic add] | 17.6 ± 6.62 | 28.5 ± 6.36
5 | O=C(O)c1ccc2nc(CN3CC=C(c4ccc(F)c(OCc5ccc(Cl)cc5F)c4)CC3)n(C[C@@H]3CCO3)c2c1 [Compound 29, (S)-2-((4-(3-((4-chloro-2-fluorobenzyl)oxy)-4-fluorophenyl)-3,6-dihydropyridin-1(2H)-yl)methyl)-1-(oxetan-2-ylmethyl)-1 h-benzo[d]imidazole-6-carboxylic acid] | 25.9 ± 1.24 | 36.6 ± 7.77
6 | O=C(O)c1ccc2nc(CN3CC=C(c4cncc(OCc5ccc(Cl)cc5F)n4)CC3)n(C[C@@H]3CCO3)c2c1 [Compound 34, (S)-2-((4-(6-(4-chloro-2-fluorobenzyloxy)pyrazin-2-yl)-5,6-dihydropyridin-1(2H)-yl)methyl)-1-(oxetan-2-ylmethyl)-1 h-benzo[d]imidazole-6-carboxylic acid] | 8.88 ± 3.19 | 20.2 ± 1.89
7 | O=C(O)c1ccc2nc(CN3CC=C(c4ccnc(OCc5ccc(Cl)cc5F)n4)CC3)n(C[C@@H]3CCO3)c2c1 [Compound 35, (S)-2-((4-(2-((4-chloro-2-fluorobenzyl)oxy)pyrimidin-4-yl)-3,6-dihydropyridin-1(2H)-yl)methyl)-1-(oxetan-2-ylmethyl)-1H-benzo[d]imidazole-6-carboxylic add] | 14.3 ± 9.21 | 19.9 ± 4.44
8 | N#Cc1ccc(COc2nc(C3=CCN(Cc4nc5ccc(C(=O)O)cc5n4C[C@@H]4CCO4)CC3)ccc2F)c(F)c1 [Compound 222, (S)-2-((6-((4-cyano-2-fluorobenzyl)oxy)-5-fluoro-3′,6′-dihydro-[2,4′-bipyridin]-1′(2′H)-yl)methyl)-1-(oxetan-2-ylmethyl)-1H-benzo[d]imidazole-6-carboxylic acid] | 31.4 ± 2.62 | 31.1 ± 4.67
9 | O=C(O)c1ccc2nc(CN3CC=C(c4ccc(F)c(OCc5ccc(Cl)cc5F)c4)CC3)n(C[C@@H]3CCO3)c2n1 [Compound 236, (S)-2-((4-(3-((4-chloro-2-fluorobenzyl)oxy)-4-fluorophenyl)-5,6-dihydropyridin-1(2H)-yl)methyl)-3-(oxetan-2-ylmethyl)-3H-imidazo[4,5-b]pyridine-5-carboxylic acid] | 30.0 | 40.3 ± 4.10

Results, then the compound that gave them:

Row | Bmax (POC) (GLP1R [1]) | Bmax (POC) (GLP1R [2]) | SMILES
10 | 20.1 | 26.0 ± 2.78 | N#Cc1ccc(COc2cccc(C3=CCN(Cc4nc5ccc(C(=O)O)cc5n4C[C@@H]4CCO4)CC3)n2)c(F)c1 [Compound 19, (S)-2-((4-(6-(4-cyano-2-fluorobenzyloxy)pyridin-2-yl)-5,6-dihydropyridin-1(2H)-yl)methyl)-1-(oxetan-2-ylmethyl)-1 h-benzo[d]imidazole-6-carboxylic add]
11 | 8.92 ± 3.70 | 18.2 ± 1.51 | N#Cc1ccc(COc2cncc(C3=CCN(Cc4nc5ccc(C(=O)O)cc5n4C[C@@H]4CCO4)CC3)n2)c(F)c1 [Compound 23, (S)-2-((4-(6-(4-cyano-2-fluorobenzyloxy)pyrazin-2-yl)-5,6-dihydropyridin-1(2H)-yl)methyl)-1-(oxetan-2-ylmethyl)-1 h-benzo[d]imidazole-6-carboxylic acid]
12 | 30.0 ± 6.40 | 35.6 ± 5.38 | O=C(O)c1ccc2nc(CN3CC=C(c4cccc(OCc5ccc(Cl)cc5F)n4)CC3)n(C[C@@H]3CCO3)c2c1 [Compound 221, (S)-2-((6-((4-chloro-2-fluorobenzyl)oxy)-3′,6′-dihydro-[2,4′-bipyridin]-1′(2′H)-yl)methyl)-1-(oxetan-2-ylmethyl)-1H-benzo[d]imidazole-6-carboxylic acid]
13 | 22.5 ± 1.41 | 33.4 ± 3.78 | O=C(O)c1ccc2nc(CN3CC=C(c4cccc(OCc5ccc(Cl)cc5F)c4)CC3)n(C[C@@H]3CCO3)c2n1 [Compound 224, (S)-2-((4-(3-((4-chloro-2-fluorobenzyl)oxy)phenyl)-3,6-dihydropyridin-1(2H)-yl)methyl)-3-(oxetan-2-ylmethyl)-3H-imidazo[4,5-b]pyridine-5-carboxylic acid]
14 | 24.0 ± 6.70 | 32.5 ± 3.55 | N#Cc1ccc(COc2cccc(C3=CCN(Cc4nc5ccc(C(=O)O)nc5n4C[C@@H]4CCO4)CC3)n2)c(F)c1 [Compound 225, (S)-2-((6-((4-cyano-2-fluorobenzyl)oxy)-3′,6′-dihydro-[2,4′-bipyridin]-1′(2′H)-yl)methyl)-3-(oxetan-2-ylmethyl)-3H-imidazo[4,5-b]pyridine-5-carboxylic add]
